Measurements taken from PubChem BioAssay AID1259407 (Chemical Carcinogenesis Research Information System (CCRIS), 2018).
Calls of active or inactive are those of the source. The rule behind the calls is not given here.

System: CCRIS mutagenicity, Ames/micronucleus/aberration tests
Assay: CCRIS mutagenicity studies
[1] = Test System: AMES SALMONELLA TYPHIMURIUM, Strain/Indicator: TA98, Metabolic Activation: NONE, Method: PREINCUBATION
[2] = Test System: AMES SALMONELLA TYPHIMURIUM, Strain/Indicator: TA100, Metabolic Activation: NONE, Method: PREINCUBATION
[3] = Test System: AMES SALMONELLA TYPHIMURIUM, Strain/Indicator: TA1535, Metabolic Activation: NONE, Method: PREINCUBATION
[4] = Test System: AMES SALMONELLA TYPHIMURIUM, Strain/Indicator: TA97, Metabolic Activation: HAMSTER, LIVER, S-9, AROCLOR 1254 (10 OR 30%), Method: PREINCUBATION
[5] = Test System: AMES SALMONELLA TYPHIMURIUM, Strain/Indicator: TA97, Metabolic Activation: NONE, Method: PREINCUBATION
[6] = Test System: AMES SALMONELLA TYPHIMURIUM, Strain/Indicator: TA97, Metabolic Activation: RAT, LIVER, S-9, AROCLOR 1254 (10 OR 30%), Method: PREINCUBATION
[7] = Test System: AMES SALMONELLA TYPHIMURIUM, Strain/Indicator: TA98, Metabolic Activation: HAMSTER, LIVER, S-9, AROCLOR 1254 (10 OR 30%), Method: PREINCUBATION
[8] = Test System: AMES SALMONELLA TYPHIMURIUM, Strain/Indicator: TA98, Metabolic Activation: RAT, LIVER, S-9, AROCLOR 1254 (10 OR 30%), Method: PREINCUBATION
[9] = Test System: AMES SALMONELLA TYPHIMURIUM, Strain/Indicator: TA100, Metabolic Activation: HAMSTER, LIVER, S-9, AROCLOR 1254 (10 OR 30%), Method: PREINCUBATION
[10] = Test System: AMES SALMONELLA TYPHIMURIUM, Strain/Indicator: TA100, Metabolic Activation: RAT, LIVER, S-9, AROCLOR 1254 (10 OR 30%), Method: PREINCUBATION
[11] = Test System: AMES SALMONELLA TYPHIMURIUM, Strain/Indicator: TA1535, Metabolic Activation: HAMSTER, LIVER, S-9, AROCLOR 1254 (10 OR 30%), Method: PREINCUBATION
[12] = Test System: AMES SALMONELLA TYPHIMURIUM, Strain/Indicator: TA1535, Metabolic Activation: RAT, LIVER, S-9, AROCLOR 1254 (10 OR 30%), Method: PREINCUBATION

| SMILES | mutagenic call [1] | mutagenic call [2] | mutagenic call [3] | mutagenic call [4] | mutagenic call [5] | mutagenic call [6] | mutagenic call [7] | mutagenic call [8] | mutagenic call [9] | mutagenic call [10] | mutagenic call [11] | mutagenic call [12] | further results |
| --- | --- | --- | --- | --- | --- | --- | --- | --- | --- | --- | --- | --- | --- |
| CC(O)CNCC(C)O (stereo not drawn) | inactive; negative | inactive; negative | inactive; negative | – | – | – | – | – | – | – | – | – | mutagenic call (Test System: AMES SALMONELLA TYPHIMURIUM, Strain/Indicator: TA98, Metabolic Activation: HAMSTER, LIVER, S-9, AROCLOR 1254 (10%), Method: PREINCUBATION): inactive; negative; mutagenic call (Test System: AMES SALMONELLA TYPHIMURIUM, Strain/Indicator: TA98, Metabolic Activation: RAT, LIVER, S-9, AROCLOR 1254 (10%), Method: PREINCUBATION): inactive; negative; mutagenic call (Test System: AMES SALMONELLA TYPHIMURIUM, Strain/Indicator: TA100, Metabolic Activation: HAMSTER, LIVER, S-9, AROCLOR 1254 (10%), Method: PREINCUBATION): inactive; negative; mutagenic call (Test System: AMES SALMONELLA TYPHIMURIUM, Strain/Indicator: TA100, Metabolic Activation: RAT, LIVER, S-9, AROCLOR 1254 (10%), Method: PREINCUBATION): inactive; negative; mutagenic call (Test System: AMES SALMONELLA TYPHIMURIUM, Strain/Indicator: TA1535, Metabolic Activation: HAMSTER, LIVER, S-9, AROCLOR 1254 (10%), Method: PREINCUBATION): inactive; negative; mutagenic call (Test System: AMES SALMONELLA TYPHIMURIUM, Strain/Indicator: TA1535, Metabolic Activation: RAT, LIVER, S-9, AROCLOR 1254 (10%), Method: PREINCUBATION): inactive; negative; mutagenic call (Test System: AMES SALMONELLA TYPHIMURIUM, Strain/Indicator: TA1537, Metabolic Activation: HAMSTER, LIVER, S-9, AROCLOR 1254 (10%), Method: PREINCUBATION): inactive; negative; mutagenic call (Test System: AMES SALMONELLA TYPHIMURIUM, Strain/Indicator: TA1537, Metabolic Activation: NONE, Method: PREINCUBATION): inactive; negative; mutagenic call (Test System: AMES SALMONELLA TYPHIMURIUM, Strain/Indicator: TA1537, Metabolic Activation: RAT, LIVER, S-9, AROCLOR 1254 (10%), Method: PREINCUBATION): inactive; negative |
| CNC(=O)Oc1cc2ccccc2c2ccccc12 | – | – | – | – | – | – | – | – | – | – | – | – | mutagenic call (Test System: AMES SALMONELLA TYPHIMURIUM, Strain/Indicator: TA98, Metabolic Activation: RAT, LIVER, S-9, AROCLOR 1254, Method: STANDARD PLATE): inactive; negative; mutagenic call (Test System: AMES SALMONELLA TYPHIMURIUM, Strain/Indicator: TA1535, Metabolic Activation: RAT, LIVER, S-9, AROCLOR 1254, Method: STANDARD PLATE): active; positive |
| Oc1cc(Cl)c(Cl)c(Cl)c1Cl | inactive; negative | inactive; negative | inactive; negative | inactive; negative | inactive; negative | inactive; negative | inactive; negative | inactive; negative | inactive; negative | inactive; negative | inactive; negative | inactive; negative | mutagenic call (End Point: IN VITRO CHROMOSOMAL ABERRATIONS, Test System: CHINESE HAMSTER LUNG CELLS (CHL), Metabolic Activation: NONE): inactive; negative; mutagenic call (End Point: IN VITRO CHROMOSOMAL ABERRATIONS, Test System: CHINESE HAMSTER LUNG CELLS (CHL), Metabolic Activation: RAT, LIVER, S-9, KC-400): active; positive (structural changes); mutagenic call (End Point: IN VITRO CHROMOSOMAL ABERRATIONS, Test System: CHINESE HAMSTER OVARY CELLS (CHO), Metabolic Activation: NONE): inactive; negative; mutagenic call (End Point: IN VITRO CHROMOSOMAL ABERRATIONS, Test System: CHINESE HAMSTER OVARY CELLS (CHO), Metabolic Activation: RAT, LIVER, S-9, AROCLOR 1254): active; positive (structural changes) |
| C=C(CC)C(=O)c1ccc(OCC(=O)O)c(Cl)c1Cl | inactive; negative | inactive; negative | inactive; negative | inactive; negative | inactive; negative | inactive; negative | inactive; negative | inactive; negative | inactive; negative | inactive; negative | inactive; negative | inactive; negative | – |
| O=[N+]([O-])c1[nH]cnc1-c1ccccc1 | – | – | – | – | – | – | – | – | – | – | – | – | mutagenic call (Test System: AMES SALMONELLA TYPHIMURIUM, Strain/Indicator: TA100, Metabolic Activation: NONE, Method: STANDARD PLATE): active; positive |
